Source: patent US10442835B2, “Water-soluble rapamycin derivatives” (Zhejiang Hisun Pharmaceutical Co., Ltd., priority 2016, dated 2019)
Values after ≈ are worked out from the molar mass of the structure shown. Like-named read-outs stand apart in the source and are kept apart here.

How the values were obtained:
[1] = system: lung cancer cell NCI460; experiment: In vitro activity assay, growth of NCI460; format: cell-based; conditions: NCI-460, 48 h
Source text: (§1) The anti-tumor activity and toxicity of the compounds according to the present invention can be assayed through standard operational procedures of pharmacological experiment. The experiments carried out herein can test the inhibitory effect of the compounds according to the present invention on the growth of human liver cancer cell HepG2, lung cancer cell NCI460, prostate cancer cell DU145, prostate cancer cell PC3, and human breast cancer cell MDA-MB-435. The operational procedure used is briefly described below by taking the inhibitory activity assay against human liver cancer cell HepG2 as an example.
(§2) The operational procedure for the assay is as follows:
(§3) 1. Cells after being trypsinized were inoculated in 96-well plates at a concentration of 10^4 cells/well, and allowed to grow in a medium with a final volume of 200 μL. The 96-well plates after inoculation are allowed to stand for 24 hours at 37° C., in order to allow the cells to adhere to the surface of the wells.
(§4) 2. The medium was removed by carefully pipetting without disturbing the cell monolayer. 200 μL Fresh medium was added into each well. It is arranged to make it possible to collect samples from enough wells to run the experiments in triplicate.
(§5) 3. The compounds to be tested according to the present invention were dissolved into 10 μL phosphate buffered solution (PBS) and incubated for 48 h at 37° C.
(§6) 4. In the last 6 h of incubation, cells in each well of the 96-well plates were labeled by 1 microcurie T thymidine (New England Nuclear thymidine), by adding 10 μL PBS containing 1 microcurie T thymidine (which was added into the PBS on the day of collecting the samples for test). The 96-well plates were then returned to the incubator and incubated for the last 6 h.
(§7) 5. Without disturbing the cell monolayer, the radioactive medium was removed by pipetting. Then 50 μL of BRL 10×trypsin was added to each well, followed by incubation at 37° C. for 10 minutes or until the cell monolayer was detached from the bottom (or the wall) of each well. Samples were collected on glass-fiber diskettes using a Skatron 96-well cell harvester. Cells depositing on the glass-fiber diskettes were counted in a Wallac Betaplate counter.

[2] = Test for solubility in water; format: physicochemical; conditions: for solubility: water, thermodynamic from solid
Description: The experiments herein can measure the dissolution profile in water of the compounds according to the present invention.
To a 25 ml volumetric flask, 25 mg everolimus was added, and diluted with acetonitrile to volume. The mixture was shaken till all the solid dissolved, obtaining 1 mg/mL everolimus solution in acetonitrile.
1 mg/mL everolimus solution in acetonitrile was added to a 10 ml volumetric flask, and was diluted with acetonitrile by 2 times, 10 times, 100 times and 1000 times, so as to obtain everolimus solutions in acetonitrile with a concentration of 0.5 mg/mL, 0.1 mg/mL, 0.01 mg/mL and 0.001 mg/mL, respectively.
Each of the three mixtures was shaken till the solid in the volumetric flask stopped to dissolve. Before analyzed by HPLC, 1 mL of each solution was filtrated via a 0.22 μm filter. The solubility of the compounds was calculated from the standard curve using the peak area of the main peak obtained.
Based on the same study method, comparisons of the solubility between sirolimus/temsirolimus and the compounds modified by glutathione are carried out, respectively.

[3] = system: human liver cancer cell HepG2; experiment: In vitro activity assay, growth of HepG2 (thymidine incorporation); format: cell-based; conditions: 48 h
Source text: as §1
Human liver cancer cell HepG2 grew in the follow medium:
Preparation of the growth medium: BRL minimum essential medium with Earle Salts (500 mL), with the addition of the following agents:
as §2, §3, §4, §5, §6, §7

[4] = system: human breast cancer cell MDA-MB-435; experiment: In vitro activity assay, growth of MDA-MB-435; format: cell-based; conditions: 48 h
Source text: as §1, §2, §3, §4, §5, §6, §7

[5] = system: prostate cancer cell DU145; experiment: In vitro activity assay, growth of DU145; format: cell-based; conditions: Homo sapiens; DU-145; 48 h
Source text: as §1, §2, §3, §4, §5, §6, §7

[6] = system: prostate cancer cell PC3; experiment: In vitro activity assay, growth of PC3; format: cell-based; conditions: 48 h
Source text: as §1, §2, §3, §4, §5, §6, §7

SMILES	solubility [2] [µg/mL]	IC50 [3] [µM]	IC50 [4] [µM]	IC50 [5] [µM]	IC50 [6] [µM]	solubility ([2]; pure water, Table 2, compounds I-5, I-6, I-7 converted to temsirolimus, read-out: Solubility in water) [µg/mL]	IC50 [1] [µM]	increase of solubility in water as compared with sirolimus [2]	increase of solubility in water as compared with temsirolimus [2]
CO[C@H]1C[C@@H]2CC[C@@H](C)[C@@](O)(O2)C(=O)C(=O)N2CCCC[C@H]2C(=O)OC([C@H](C)C[C@@H]2CC[C@@H](OC(=O)CSC[C@H](NC(=O)CC[C@H](N)C(=O)O)C(=O)NCC(=O)O)[C@H](OC)C2)CC(=O)[C@H](C)/C=C(\C)[C@@H](O)[C@@H](OC)C(=O)[C@H](C)C[C@@H](C)\C=C/C=C/C=C/1C (stereo partly shown) [Compound I-3]	470 (≈ 373 µM)	35.188 ± 0.007	63.633 ± 0.015	62.511 ± 0.01	31.396 ± 0.008		82.328 ± 0.011	at least 470 times	
CO[C@H]1C[C@@H]2CC[C@@H](C)[C@@](O)(O2)C(=O)C(=O)N2CCCC[C@H]2C(=O)OC([C@H](C)C[C@@H]2CC[C@@H](OC(=O)C(C)(CO)COC(=O)CSC[C@H](NC(=O)CC[C@H](N)C(=O)O)C(=O)NCC(=O)O)[C@H](OC)C2)CC(=O)[C@H](C)/C=C(\C)[C@@H](O)[C@@H](OC)C(=O)[C@H](C)C[C@@H](C)\C=C/C=C/C=C/1C (stereo partly shown) [Compound I-5]	580 (≈ 421 µM)	50.213 ± 0.01	70.761 ± 0.009	60.813 ± 0.011	38.396 ± 0.008		80.53 ± 0.013		at least 580 times
CO[C@H]1C[C@@H]2CC[C@@H](C)[C@@](O)(O2)C(=O)C(=O)N2CCCC[C@H]2C(=O)O[C@H]([C@H](C)C[C@@H]2CC[C@@H](O)[C@H](OC)C2)CC(=O)[C@H](C)/C=C(\C)[C@@H](O)[C@@H](OC)C(=O)[C@H](C)C[C@H](C)/C=C/C=C/C=C/1C [Sirolimus, reference compound]	< 1	66.254 ± 0.007	68.57 ± 0.007	68.52 ± 0.009	42.371 ± 0.009		101.36 ± 0.013		
CO[C@H]1C[C@@H]2CC[C@@H](C)[C@@](O)(O2)C(=O)C(=O)N2CCCC[C@H]2C(=O)O[C@H]([C@H](C)C[C@@H]2CC[C@@H](OC(=O)C(C)(CO)CO)[C@H](OC)C2)CC(=O)[C@H](C)/C=C(\C)[C@@H](O)[C@@H](OC)C(=O)[C@H](C)C[C@H](C)/C=C/C=C/C=C/1C [Temsirolimus, reference compound]		60.337 ± 0.01	77.31 ± 0.005	65.361 ± 0.015	47.319 ± 0.005	~1 (≈ 0.971 µM)	113.25 ± 0.011		

Continued, in another order:

solubility [2] [µg/mL]	IC50 [3] [µM]	IC50 [4] [µM]	IC50 [5] [µM]	IC50 [6] [µM]	solubility ([2]; pure water, Table 2, compounds I-5, I-6, I-7 converted to temsirolimus, read-out: Solubility in water) [µg/mL]	SMILES	IC50 [1] [µM]	increase of solubility in water as compared with sirolimus [2]	increase of solubility in water as compared with temsirolimus [2]
610 (≈ 379 µM)	73.402 ± 0.007	73.283 ± 0.012	93.277 ± 0.011	51.413 ± 0.005		CO[C@H]1C[C@@H]2CC[C@@H](C)[C@@](O)(O2)C(=O)C(=O)N2CCCC[C@H]2C(=O)OC([C@H](C)C[C@@H]2CC[C@@H](OC(=O)CSC[C@H](NC(=O)CC[C@H](N)C(=O)O)C(=O)NCC(=O)O)[C@H](OC)C2)CC(=O)[C@H](C)/C=C(\C)[C@@H](OC(=O)CSC[C@H](NC(=O)CC[C@H](N)C(=O)O)C(=O)NCC(=O)O)[C@@H](OC)C(=O)[C@H](C)C[C@@H](C)\C=C/C=C/C=C/1C (stereo partly shown) [Compound I-4]	122.8 ± 0.017	≥ 610 times	
830 (≈ 401 µM)	76.703 ± 0.012	81.31 ± 0.008	82.51 ± 0.015	60.492 ± 0.01		CO[C@H]1C[C@@H]2CC[C@@H](C)[C@@](O)(O2)C(=O)C(=O)N2CCCC[C@H]2C(=O)OC([C@H](C)C[C@@H]2CC[C@@H](OC(=O)C(C)(COC(=O)CSC[C@H](NC(=O)CC[C@H](N)C(=O)O)C(=O)NCC(=O)O)COC(=O)CSC[C@H](NC(=O)CC[C@H](N)C(=O)O)C(=O)NCC(=O)O)[C@H](OC)C2)CC(=O)[C@H](C)/C=C(\C)[C@@H](OC(=O)CSC[C@H](NC(=O)CC[C@H](N)C(=O)O)C(=O)NCC(=O)O)[C@@H](OC)C(=O)[C@H](C)C[C@@H](C)\C=C/C=C/C=C/1C (stereo partly shown) [Compound I-7]	131.26 ± 0.01		≥ 830 times
